Measurements: patent US10647702B2, “Aryl-substituted imidazoles” (St. Jude Children's Research Hospital, priority 2010, dated 2020)

Experiments:
[1] = Plasma stability, pooled human plasma; assay type: in vitro ADME; settings: 37° C., up to 48 hr
Description: (§1) Compound stocks were 10 mM in DMSO. The internal standard was 10 μM warfarin in methanol. 1.9 ml mouse plasma (Fisher Scientific, catalog #: NC9050370) or pooled human plasma (Innovative Research Inc., catalog # IPLA-1) was added to the columns of 1, 4, 7 and 10 of a 2 ml 96-well deep well plate (pION Inc., MA, #110023); this was the master plate. 1.9 μl compound stock was added to each well with plasmas and mixed well. Using a multi-channel pipette, 600 μl from the columns of 1, 4, 7 and 10 were taken and added into the rest of the columns (fluids in column 1 added to columns 2 and 3, column 4 into 5 and 6, and so on). From the master plate, 65 μl were taken from each well and added into 8 storage plates (pION Inc., MA, #110323), each for a time point. The storage plates was then incubated at 37° C. and shaken at 60 rpm. Samples were taken at 0 min, 30 min, 1 hr, 2 hr, 4 hr, 8 hr, 24 hr and 48 hr. At each time point, 195 μl internal standard was added to quench the reaction. The plates were then centrifuged at 4000 rpm for 15 min and supernatant was analyzed by UPLC-MS. The compound was detected by SIR and quantitation was based on peak area ratio of test compound vs. the internal standard.

[2] = Plasma stability, mouse plasma; assay type: in vitro ADME; settings: 37° C., up to 48 hr
Description: as §1

[3] = Liver microsomal stability, mouse; assay type: in vitro ADME; settings: for mouse liver microsome t(½): female CD-1 mouse liver microsomes, 37° C.; for CLint scaled at 19.8 µM: female, CD-1, mouse, liver microsomes, pH 7.4, intrinsic clearance calculated from t1/2, read-out: mouse liver microsome CLint′
Description: (§2) 1.582 mL of mouse liver microsome (20 mg/mL, female CD-1 mice, pooled, Fisher Scientific, # NC9567486) was mixed with 0.127 ml of 0.5M EDTA solution and 48.3 ml potassium phosphate buffer (0.1M, pH 7.4, 37° C.) to make 50 ml of mouse liver microsome solution. Human liver microsomal solution was made with human liver microsome (50 pooled mix gender, Fisher Scientific #50-722-516) the same way. 1 volume of 10 mM DMSO compound stock was mixed with 4 volume of acetonitrile to make 2 mM diluted compound stock in DMSO and acetonitrile. 37.83 μL, diluted compound stock was added to 3 mL liver microsomal solution and vortexed to make microsomal solution with compound. 1 ml of liver microsomal solution with compound is added to each well of a master storage plate (pION Inc., MA, #110323). All compounds are in triplicates. Mouse and human liver microsomes were tested side by side on the same plate. 175 μL of each well was dispensed from the master plate into 5 storage plates. For 0 hour time point, 450 pit pre-cooled (4° C.) internal standard (10 μM warfarin in methanol) was added to the first plate before the reaction starts. 5.25 ml of microsome assay solution A (Fisher Scientific, # NC9255727) was combined with 1.05 ml of solution B (Fisher Scientific, # NC9016235) in 14.7 ml of potassium phosphate buffer (0.1 M, pH 7.4). 45 μL of this A+B solution was added to each well of all the 96-well storage plates and mixed with pipette briefly. The plates are sealed, and all plates except 0-hr plate were incubated at 37° C., shaken at a speed of 60 rpm. 0.5 hr, 1 hr, 2 hr and 4 hr time points were taken. At each time point, 450 μL pre-cooled internal standard was added to the plate to quench the reaction. The quenched plate was then centrifuged (model 5810R, Eppendorf, Westbury, N.Y.) at 4000 rpm for 15 minutes. 150 μL supernatant was transferred to a 96-well plate and analyzed by UPLC-MS (Waters Inc., Milford, Mass.). The compounds and internal standard were detected by SIR. The log peak area ratio (compound peak area/internal standard peak area) was plotted vs time (hr) and the slope was determined to calculate the elimination rate constant [k=(−2.303)*slope]. The half life (hr) was calculated as t (1/2)=0.693/k. Intrinsic clearance was calculated as CLint′=(0.693/(t1/2))*(1/microsomal concentration in the reaction solution)*(45 mg microsome/gram liver)*(gram liver/kg b.w.), where microsomal concentration in the reaction solution is 0.5 mg/ml, and gram liver/kg b.w. of CD-1 female mice and human are 52 and 20, respectively.

[4] = Liver microsomal stability, human; assay type: in vitro ADME; settings: for CLint scaled at 19.8 µM: both sexes, human, liver microsomes, pH 7.4, intrinsic clearance calculated from t1/2, read-out: Human liver microsome CLint′; for human liver microsome t(½): pooled human liver microsomes, 37° C.
Description: as §2

[5] = PBS stability; assay type: physicochemical; settings: PBS pH 7.4, 37° C., up to 48 hr
Description: as §1, with “ml PBS (Mediatech Inc., Manassas, Va.,” for “ml mouse plasma (Fisher Scientific,”, “catalog #21-040-CM)” for “catalog #: NC9050370) or pooled human plasma (Innovative Research Inc., catalog # IPLA-1)”, “with […]” for “with plasmas”, “65 pil” for “65 μl”

Row | hPlasma stability t(½) [1] [h] | mPlasma stability t(½) [2] [h] | mouse liver microsome t(½) [3] [h] | CLint scaled at 19.8 µM [3] [mL/min/kg] | CLint scaled at 19.8 µM [4] [mL/min/kg] | human liver microsome t(½) [4] [h] | PBS pH 7.4 stability t(½) [5] [hr] | SMILES
1 | >48 | >48 | 0.73 | 73.9 | 14.2 | 1.46 | >48 | COc1ccc(C2=NC(c3cccc(C)c3)C(c3ccc(Cl)cc3)N2C(=O)N2CCNC(=O)C2)c(OC(C)C)c1 (centres unmarked) [SJ000558304-1]
2 | >48 | >48 | 2.17 | 24.9 | 12.1 | 1.72 | >48 | COc1ccc(C2=N[C@@H](c3cccc(Cl)c3)[C@@H](c3ccc(Cl)cc3)N2C(=O)N2CCNC(=O)C2)c(OC(C)C)c1 [SJ000558295-1]
